Measurements as given in patent US8637511B2, “Aminopyrimidines useful as kinase inhibitors” (Vertex Pharmaceuticals Incorporated, priority 2005, dated 2014).
Several values for one entry are separate records, joined by “and”; a condition that tells them apart may be missing. Identical values can stand only once. Like-named read-outs stand apart in the source and are kept apart here.

Experiments:
[1] = biological target: T1, JAK3 (Homo sapiens, UniProt P52333); test: biochemical
T1 sequence (P52333 1-1124): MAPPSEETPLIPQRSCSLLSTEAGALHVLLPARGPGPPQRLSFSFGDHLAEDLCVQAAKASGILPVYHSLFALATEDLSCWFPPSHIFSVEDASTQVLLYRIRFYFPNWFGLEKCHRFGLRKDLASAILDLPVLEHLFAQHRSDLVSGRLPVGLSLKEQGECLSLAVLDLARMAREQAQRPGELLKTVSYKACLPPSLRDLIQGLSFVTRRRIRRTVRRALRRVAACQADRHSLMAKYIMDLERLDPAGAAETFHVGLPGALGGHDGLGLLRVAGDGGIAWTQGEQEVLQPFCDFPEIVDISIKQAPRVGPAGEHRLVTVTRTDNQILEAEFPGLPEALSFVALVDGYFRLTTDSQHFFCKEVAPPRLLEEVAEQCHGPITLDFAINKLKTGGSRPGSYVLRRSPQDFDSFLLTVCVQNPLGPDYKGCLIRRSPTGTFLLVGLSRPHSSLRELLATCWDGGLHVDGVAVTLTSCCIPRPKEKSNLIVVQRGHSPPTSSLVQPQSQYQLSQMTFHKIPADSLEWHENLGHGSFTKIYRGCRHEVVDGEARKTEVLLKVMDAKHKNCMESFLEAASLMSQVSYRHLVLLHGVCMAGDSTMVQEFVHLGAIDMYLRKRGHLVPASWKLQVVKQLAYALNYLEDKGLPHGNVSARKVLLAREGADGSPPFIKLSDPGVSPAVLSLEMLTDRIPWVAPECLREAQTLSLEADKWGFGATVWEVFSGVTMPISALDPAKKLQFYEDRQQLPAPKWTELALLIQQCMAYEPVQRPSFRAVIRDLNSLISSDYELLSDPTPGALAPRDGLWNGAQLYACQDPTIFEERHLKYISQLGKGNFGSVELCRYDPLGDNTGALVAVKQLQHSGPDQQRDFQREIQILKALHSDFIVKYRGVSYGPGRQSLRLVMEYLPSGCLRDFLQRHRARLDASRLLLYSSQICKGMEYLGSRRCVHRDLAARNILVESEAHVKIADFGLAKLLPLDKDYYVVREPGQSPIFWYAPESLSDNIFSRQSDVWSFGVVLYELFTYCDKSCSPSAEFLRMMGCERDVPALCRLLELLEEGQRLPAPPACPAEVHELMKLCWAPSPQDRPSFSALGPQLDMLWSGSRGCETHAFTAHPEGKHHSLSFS

[2] = system: Colo205 cells; test: Analysis of cell proliferation and viability; assay type: cell-based; conditions: Homo sapiens, read-out: IC50 value
[3] = biological target: Aurora-1 (Aurora B) (Homo sapiens, UniProt Q96GD4); test: Aurora-1 (Aurora B) inhibition assay (radiometric); assay type: biochemical; conditions: read-out: Aurora B kinase Ki value
Aurora-1 (Aurora B), sequence (Q96GD4 whole entry): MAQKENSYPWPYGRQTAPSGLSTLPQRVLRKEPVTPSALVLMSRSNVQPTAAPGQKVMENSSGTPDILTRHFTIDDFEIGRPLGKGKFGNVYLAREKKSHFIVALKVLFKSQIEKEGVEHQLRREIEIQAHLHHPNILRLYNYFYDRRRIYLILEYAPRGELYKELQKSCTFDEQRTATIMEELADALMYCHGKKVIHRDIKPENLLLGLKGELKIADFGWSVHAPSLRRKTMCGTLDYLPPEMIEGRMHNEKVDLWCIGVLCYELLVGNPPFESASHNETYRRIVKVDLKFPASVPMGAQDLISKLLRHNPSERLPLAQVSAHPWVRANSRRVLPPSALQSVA
Method in brief: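 Ki values come from non-linear regression of background-corrected initial-rate data. The enzyme was preincubated 10 min at 25° C with compound, then reacted 3 h with 800 μM (final) [γ-^33P]-ATP in HEPES pH 7.5/MgCl2/BSA/glycerol buffer. The reaction was stopped with phosphoric acid and substrate-bound ^33P counted on phosphocellulose.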

[4] = COLO 205, Colo205 cells, incubated for 96 hours
[5] = COLO 205, Colo205 cells, incubated for 72 hours

Compound	Ki [1] [nM]	IC50 [2, 4] [nM]	Ki [3]	IC50 [2, 5] [nM]	Ki ([1]; read-out: JAK3 Ki value) [nM]	IC50 ([2]; COLO 205, 96 h) [nM]
CCC(=O)Nc1ccc(Sc2nc(Nc3cc(C)n[nH]3)cc(N3CC(C)(OC(C)(C)C)C3)n2)cc1 [Compound 96]	10 to 500	≤ 50	10 to 50 nM and < 25 nM	–	–	–
Cc1cc(Nc2cc(N3CCC3)nc(Sc3ccc(NC(=O)NCc4ccccc4)cc3)n2)n[nH]1 [Compound 74]	10 to 500	> 1000	50 to 2000 nM	–	–	–
Cc1ccc2cc(Sc3nc(Nc4cc(C)[nH]n4)cc(N4CC(N5CCCC5)C4)n3)ccc2n1 [Compound 182]	10 to 500	–	10 to 50 nM and < 25 nM	≤ 30	–	–
Cc1cc(Nc2cc(N3CCC3)nc(Sc3ccc(NS(C)(=O)=O)cc3)n2)[nH]n1 [Compound 150]	≤ 10	–	50 to 2000 nM	> 200	–	–
Cc1cc(Nc2cc(N3CCC3)nc(Sc3ccc(NC(=O)c4nccn4C)cc3)n2)n[nH]1 [Compound 166]	–	> 1000	50 to 2000 nM	–	10 to 500	–
CC1=NN=C(Nc2cc(N3CCC3)nc(Sc3ccc(NC(=O)c4cccc(C(F)(F)F)c4F)cc3)n2)C1 [Compound 55]	10 to 500	50 to 1000	≤ 10 nM	–	–	–
Cc1ccc2cc(Sc3nc(Nc4cc(C)[nH]n4)cc(N4CC(C5CCC(F)C5)C4)n3)ccc2n1 (stereo not shown) [Compound 198]	–	–	10 to 50 nM and < 25 nM	≤ 30	10 to 500	–
CCC(=O)Nc1ccc(Sc2nc(Nc3cc(C)[nH]n3)cc(N3CC(O)C3)n2)cc1 [Compound 15]	10 to 500	50 to 1000	10 to 50 nM and < 25 nM	–	–	–
Cc1cc(Nc2cc(N3CCC3)nc(Sc3ccc4ccccc4c3)n2)n[nH]1 [Compound 25]	≤ 10	> 1000	50 to 2000 nM	–	–	–
CCC(=O)Nc1ccc(Sc2nc(Nc3cc(C)n[nH]3)cc(N3CC(O)(C(F)(F)F)C3)n2)cc1 [Compound 94]	–	50 to 1000	10 to 50 nM and < 25 nM	–	10 to 500	–
Cc1cc(Nc2cc(N3CC(OC(C)(C)C)C3)nc(Sc3ccc(NC(=O)c4ccccc4Cl)cc3)n2)[nH]n1 [Compound 66]	10 to 500	50 to 1000	≤ 10 nM	–	–	–
Cc1cc(Nc2cc(N3CCC3)nc(Sc3ccc(NC(=O)c4ccc(Cl)cc4Cl)cc3)n2)n[nH]1 [Compound 162]	10 to 500	50 to 1000	10 to 50 nM and < 25 nM	–	–	–
CCC(=O)Nc1ccc(Sc2nc(Nc3cc(C)[nH]n3)cc(N3CCC3)n2)cc1 [Compound 14]	–	–	10 to 50 nM and < 25 nM	–	10 to 500	50 to 1000
Cc1cc(Nc2cc(N3CC(F)(C4CC4)C3)nc(Sc3ccc4nc(C(F)(F)F)[nH]c4c3)n2)[nH]n1 [Compound 202]	≤ 10	–	10 to 50 nM and < 25 nM	30 to 200	–	–
Cc1ccc(C(=O)Nc2ccc(Sc3nc(Nc4cc(C)n[nH]4)cc(N4CCC4)n3)cc2)cn1 [Compound 145]	10 to 500	–	50 to 2000 nM	> 200	–	–
Cc1cc(Nc2cc(N3CCC3)nc(Sc3ccc(C(=O)Nc4ccccc4Cl)cc3)n2)[nH]n1 [Compound 48]	–	50 to 1000	≤ 10 nM	–	10 to 500	–
Cc1cc(Nc2cc(N3CC(N4CCOCC4)C3)nc(Sc3ccc(NC(=O)CC(F)(F)F)cc3)n2)[nH]n1 [Compound 199]	–	–	≤ 10 nM	≤ 30	≤ 10	–
CCC(=O)Nc1ccc(Sc2nc(Nc3cc(C)n[nH]3)cc(N3CC(C)(C#N)C3)n2)cc1 [Compound 79]	–	50 to 1000	10 to 50 nM and < 25 nM	–	10 to 500	–
Cc1cc(Nc2cc(N3CCC3)nc(Sc3ccc(NC(=O)c4ccncc4C(F)(F)F)cc3)n2)[nH]n1 [Compound 146]	10 to 500	–	≤ 10 nM	≤ 30	–	–
Cc1cc(Nc2cc(N3CC(C#N)C3)nc(Sc3ccc(NC(=O)c4ccccc4Cl)cc3)n2)n[nH]1 [Compound 16]	10 to 500	50 to 1000	≤ 10 nM	30 to 200	–	–
Cc1cc(Nc2cc(N3CCC3)nc(Sc3ccc(NC(=O)C(C)(C)C)cc3)n2)[nH]n1 [Compound 114]	500 to 2000	–	10 to 50 nM	> 200	–	–
O=C(CC(F)(F)F)Nc1ccc(Sc2nc(Nc3cc[nH]n3)cc(N3CC(F)(C4CC4)C3)n2)cc1 [Compound 148]	10 to 500	–	50 to 2000 nM	> 200	–	–
